In patent US20090208425A1, “TRANSMUCOSAL ADMINISTRATION OF 2,3-DIMETHOXY-5-METHYL-6-(10-HYDROXYDECYL)-1,4-BENZOQUINONE” (SANTHERA PHARMACEUTICALS (SCHWEIZ) AG, priority 2006, published 2009):
Like-named read-outs stand apart in the source and are kept apart here.

Experiments:
[1] = Pharmacokinetics after sublingual (oromucosal) vs. oral delivery of idebenone micro-emulsion in dogs; type: in vivo, Beagle dogs; details: for Cmax / Tmax / AUC(0-t): beagle, dog, mean; for AUC(0-t): read-out: AUC0-480 of idebenone (converted)
Method: Quantification of idebenone was performed by liquid chromatography (LC) coupled on-line with tandem mass spectrometry (MS/MS). Calibration samples were prepared in human plasma and quality control (QC) samples were prepared in dog plasma.
150 μl of dog plasma were treated with 10 μl of an EDTA solution, prepared by dissolution of 1245 mg EDTA-potassium salt in 33 ml of 1M NH4OAc, and 300 μl of Methanol. After vigorous shaking, samples were centrifuged for 45 minutes with 1960 RCF at 4° C. A 50 μl aliquot of the supernatant was injected into the LC-MS/MS system. All unknown, calibration and QC samples were subjected to the same assay procedure.
Idebenone was separated and quantified by HPLC-MS/MS: For HPLC, a Synergi™ 4μ MAX-RP (50×2 mm) column (Phenomenex, Schlieren, Switzerland) was used. Column temperature: 50° C. Mobile phase A: water+30 mM NH4OAc; mobile phase B: MeOH/H2O 100/3 (v/v)+30 mM NH4OAc, gradient elution (table 4). Flow: 250 μl/min and 400 μl/min.
Once separated, idebenone was quantified by ESI-MS/MS (API 4000, Perkin-Elmer-Europe BV, Rotkreuz, Switzerland) in positive mode.
Idebenone conjugates such as glucuronates and sulphates have been quantified after acidic hydrolysis as described by R. Artuch, C. Colomé, M. A. Vilaseca, A. Aracil. M. Pineda, J. Neurosci. Meth. 115 (2002), 63-66.
Plasma levels of idebenone were studied after the administration of a micro-emulsion, prepared as described in example 1, to dogs (n=3). The sublingual administration of 4 mg/kg was compared with 40 mg/kg oral administration in a cross-over design. Blood samples were collected for 8 hours after administration. Concentrations of idebenone in plasma were measured by HPLC-MS/MS as described in example 4 and pharmacokinetic parameters were calculated.
The pharmacokinetic analysis included maximum plasma concentration (Cmax), the time when maximum plasma concentration was observed (Tmax), and the area under the plasma concentrations versus time curve from time 0 h to 480 min (AUC0-480min). The relative bioavailability of idebenone after sublingual administration compared to the oral administration was calculated for each dog from normalized (1 mg/kg) AUC values. The AUC ratios of the metabolites were also calculated. In addition, Cmax ratios, normalized to a 1 mg/kg dose, were calculated.

[2] = First-pass hepatic metabolism of idebenone after oral administration; type: in vivo; details: after absorption in the gut (oral administration)
Excerpt: As a lipophilic compound idebenone is well absorbed in the gastrointestinal tract after conventional oral administration, which is the normal route for administering said compound. Dosage forms such as tablets or capsules have been used in clinical trials and as marketed product. In the course of our investigations on the pharmacological profile of idebenone, we discovered that the compound, after being absorbed in the gut, is metabolized very quickly during its first passage through the liver (“first-pass-effect”). […] Hepatic metabolism of idebenone results in side chain oxidation, reduction of the quinone ring, sulphate and glucuronide conjugation and subsequent renal excretion. The high first-pass-effect leads to a fast reduction of pharmacologically active plasma levels of free idebenone. Because of this strong first pass metabolism, oral administration of idebenone requires high doses of the compound to achieve pharmacologically efficacious plasma levels in the body. Said high doses can result in unwanted side effects such as diarrhea.

[3] = 536 patients, up to 360 mg idebenone t.i.d.; cited from earlier work
[4] = 4 mg/kg oro-mucosal (sublingual), micro-emulsion of example 1, dogs n=3, plasma
[5] = 40 mg/kg oral (p.o.), dogs n=3, plasma
[6] = oromucosal (4 mg/kg) vs. oral (40 mg/kg), normalized to a 1 mg/kg dose, dogs

- Cmax [1, 4]: 106 ng/mL
- Tmax [1, 4]: 6.3 min
- AUC(0-t) [1, 4]: 21.1 ng·h/mL
- Cmax [1, 5]: 31.9 ng/mL
- Tmax [1, 5]: 22.7 min
- AUC(0-t) [1, 5]: 18 ng·h/mL
- AUC ratio, idebenone (normalized for dose) [1, 6]: 11.1
- Cmax ratio, idebenone (normalized for dose) [1, 6]: 36.8
- idebenone metabolized during its first passage through the liver [2]: more than 98%
Compound: COC1=C(OC)C(=O)C(CCCCCCCCCCO)=C(C)C1=O [idebenone, 2,3-dimethoxy-5-methyl-6-(10-hydroxydecyl)-1,4-benzoquinone]
- treatment emergent adverse events compared to placebo [3]: no treatment emergent adverse events except some gastrointestinal irritations as well as a slight increase in orthopedic events
